Columns and labels:
Assay type in all cases: functional
[1] = tested on: M14; assay: Cytotoxicity against Homo sapiens (human) M14 cells after 48 hr by SRB assay; conditions: M14, 48 h
[2] = tested on: LOX IMVI; assay: Cytotoxicity against Homo sapiens (human) LOXIMVI cells after 48 hr by SRB assay
[3] = tested on: U-251; assay: Cytotoxicity against Homo sapiens (human) U251 cells after 48 hr by SRB assay; conditions: U-251, 48 h
[4] = tested on: Hs-578T; assay: Cytotoxicity against Homo sapiens (human) Hs578T cells after 48 hr by SRB assay
[5] = tested on: MCF7; assay: Cytotoxicity against Homo sapiens (human) MCF7 cells after 48 hr by SRB assay; conditions: MCF7, 48 h
[6] = tested on: MDA-MB-231; assay: Cytotoxicity against Homo sapiens (human) MDA-MB-231 cells after 48 hr by SRB assay; conditions: MDA-MB-231, 48 h
[7] = tested on: DU-145; assay: Cytotoxicity against Homo sapiens (human) DU145 cells after 48 hr by SRB assay; conditions: DU-145, 48 h
[8] = tested on: UO-31; assay: Cytotoxicity against Homo sapiens (human) UO31 cells after 48 hr by SRB assay; conditions: UO-31, 48 h
[9] = tested on: RXF 393; assay: Cytotoxicity against Homo sapiens (human) RXF393 cells after 48 hr by SRB assay; conditions: RXF 393, 48 h
[10] = tested on: CAKI-1; assay: Cytotoxicity against Homo sapiens (human) Caki1 cells after 48 hr by SRB assay; conditions: CAKI-1, 48 h
[11] = tested on: ACHN; assay: Cytotoxicity against Homo sapiens (human) ACHN cells after 48 hr by SRB assay
[12] = tested on: 786-0; assay: Cytotoxicity against Homo sapiens (human) 786-0 cells after 48 hr by SRB assay; conditions: 786-0, 48 h
[13] = Cytotoxicity against Homo sapiens (human) NCI-ADR-RES cells after 48 hr by SRB assay
[14] = tested on: SK-OV-3; assay: Cytotoxicity against Homo sapiens (human) SKOV3 cells after 48 hr by SRB assay; conditions: SK-OV-3, 48 h
[15] = tested on: OVCAR-8; assay: Cytotoxicity against Homo sapiens (human) OVCAR8 cells after 48 hr by SRB assay; conditions: OVCAR-8, 48 h
[16] = tested on: OVCAR-5; assay: Cytotoxicity against Homo sapiens (human) OVCAR5 cells after 48 hr by SRB assay; conditions: OVCAR-5, 48 h
[17] = tested on: OVCAR-3; assay: Cytotoxicity against Homo sapiens (human) OVCAR3 cells after 48 hr by SRB assay; conditions: OVCAR-3, 48 h
[18] = tested on: UACC-62; assay: Cytotoxicity against Homo sapiens (human) UACC62 cells after 48 hr by SRB assay; conditions: UACC-62, 48 h
[19] = tested on: UACC-257; assay: Cytotoxicity against Homo sapiens (human) UACC257 cells after 48 hr by SRB assay; conditions: UACC-257, 48 h
[20] = tested on: SK-MEL-5; assay: Cytotoxicity against Homo sapiens (human) SK-MEL-5 cells after 48 hr by SRB assay; conditions: SK-MEL-5, 48 h
[21] = tested on: SK-MEL-28; assay: Cytotoxicity against Homo sapiens (human) SK-MEL-28 cells after 48 hr by SRB assay; conditions: SK-MEL-28, 48 h
[22] = Cytotoxicity against Homo sapiens (human) breast cancer cells after 48 hr by SRB assay; conditions: Cancer cell lines
[23] = Cytotoxicity against Homo sapiens (human) renal cancer cells after 48 hr by SRB assay; conditions: Cancer cell lines
[24] = Cytotoxicity against Homo sapiens (human) ovarian cancer cells after 48 hr by SRB assay; conditions: Cancer cell lines
[25] = Cytotoxicity against Homo sapiens (human) melanoma cells after 48 hr by SRB assay; conditions: Melanoma cell
[26] = Cytotoxicity against Homo sapiens (human) CNS cancer cells after 48 hr by SRB assay; conditions: Cancer cell lines
[27] = Cytotoxicity against Homo sapiens (human) non-small cell lung cancer cells after 48 hr by SRB assay; conditions: Cancer cell lines
[28] = tested on: NCI-H460; assay: Cytotoxicity against Homo sapiens (human) NCI-H460 cells assessed as cellular growth after 48 hr by Alamar blue assay; set-up: concentration or dose not given beside the values
[29] = tested on: SF-268; assay: Cytotoxicity against Homo sapiens (human) SF268 cells assessed as cellular growth after 48 hr by Alamar blue assay; set-up: concentration or dose not given beside the values
[30] = tested on: BT-549; assay: Cytotoxicity against Homo sapiens (human) BT549 cells after 48 hr by SRB assay; conditions: BT-549, 48 h
[31] = tested on: T47D; assay: Cytotoxicity against Homo sapiens (human) T47D cells after 48 hr by SRB assay
[32] = tested on: SNB-19; assay: Cytotoxicity against Homo sapiens (human) SNB19 cells after 48 hr by SRB assay; conditions: SNB-19, 48 h
[33] = tested on: SF-539; assay: Cytotoxicity against Homo sapiens (human) SF539 cells after 48 hr by SRB assay; conditions: SF-539, 48 h
[34] = tested on: SF-295; assay: Cytotoxicity against Homo sapiens (human) SF295 cells after 48 hr by SRB assay; conditions: SF-295, 48 h
[35] = tested on: SW-620; assay: Cytotoxicity against Homo sapiens (human) SW620 cells after 48 hr by SRB assay; conditions: SW-620, 48 h
[36] = tested on: SF-268; assay: Cytotoxicity against Homo sapiens (human) SF268 cells after 48 hr by SRB assay; conditions: SF-268, 48 h
[37] = tested on: KM12; assay: Cytotoxicity against Homo sapiens (human) KM12 cells after 48 hr by SRB assay; conditions: KM12, 48 h
[38] = tested on: HCT-15; assay: Cytotoxicity against Homo sapiens (human) HCT15 cells after 48 hr by SRB assay; conditions: HCT-15, 48 h
[39] = tested on: HT-29; assay: Cytotoxicity against Homo sapiens (human) HT-29 cells after 48 hr by SRB assay; conditions: HT-29, 48 h
[40] = tested on: NCI-H522; assay: Cytotoxicity against Homo sapiens (human) NCI-H522 cells after 48 hr by SRB assay; conditions: NCI-H522, 48 h
[41] = tested on: COLO 205; assay: Cytotoxicity against Homo sapiens (human) COLO205 cells after 48 hr by SRB assay; conditions: COLO 205, 48 h
[42] = tested on: NCI-H23; assay: Cytotoxicity against Homo sapiens (human) NCI-H23 cells after 48 hr by SRB assay; conditions: NCI-H23, 48 h
[43] = Cytotoxicity against Homo sapiens (human) NCI-H322 cells after 48 hr by SRB assay; conditions: NCI-H322, 48 h
[44] = tested on: HOP-92; assay: Cytotoxicity against Homo sapiens (human) HOP92 cells after 48 hr by SRB assay; conditions: HOP-92, 48 h
[45] = tested on: EKVX; assay: Cytotoxicity against Homo sapiens (human) EKVX cells after 48 hr by SRB assay
[46] = tested on: A549; assay: Cytotoxicity against Homo sapiens (human) A549 cells after 48 hr by SRB assay; conditions: A549, 48 h
[47] = tested on: MCF7; assay: Cytotoxicity against Homo sapiens (human) MCF7 cells assessed as cellular growth after 48 hr by Alamar blue assay; set-up: concentration or dose not given beside the values

O=C(Nc1ccccc1)NS(=O)(=O)c1ccc(N2N=C3c4ccccc4CC3C2c2cccnc2)cc1 (centres undefined)
GI50 [1]: 24.9 µM | GI50 [2]: 15.4 µM | GI50 [3]: 31.9 µM | GI50 [4]: 40.7 µM | GI50 [5]: 27 µM | GI50 [6]: 19.8 µM | GI50 [7]: 36.6 µM | GI50 [8]: 48.8 µM | GI50 [9]: 45.3 µM | GI50 [10]: 26.4 µM | GI50 [11]: 23.6 µM | GI50 [12]: 35.5 µM | GI50 [13]: 64.4 µM | GI50 [14]: > 100 µM | GI50 [15]: 27 µM | GI50 [16]: 26.8 µM | GI50 [17]: 21.6 µM | GI50 [18]: 17.8 µM | GI50 [19]: 26.6 µM | GI50 [20]: 23.6 µM | GI50 [21]: 71.5 µM | GI50 [22]: 42.4 µM | TGI [22]: 87.8 µM | GI50 [23]: 31.7 µM | TGI [23]: 86.4 µM | GI50 [24]: 48.6 µM | TGI [24]: 90.8 µM | GI50 [25]: 30.8 µM | TGI [25]: 49.3 µM | GI50 [26]: 54.8 µM | TGI [26]: 87.6 µM | GI50 [27]: 30 µM | TGI [27]: 56.4 µM | Activity [28]: <=32% | Activity [29]: <=32% | GI50 [30]: 30.6 µM | GI50 [31]: 93 µM | GI50 [32]: 83.9 µM | GI50 [33]: 30.6 µM | GI50 [34]: 20.6 µM | GI50 [35]: 34 µM | GI50 [36]: 62.1 µM | GI50 [37]: 24.8 µM | GI50 [38]: 23.1 µM | GI50 [39]: 37.9 µM | GI50 [40]: 17.7 µM | GI50 [41]: 31.1 µM | GI50 [42]: 20.8 µM | GI50 [43]: 17.3 µM | GI50 [44]: 74.9 µM | GI50 [45]: 27.8 µM | GI50 [46]: 29.2 µM | Activity [47]: <=32%

O=S(=O)(NC(=S)Nc1ccccc1)c1ccc(N2N=C3c4ccccc4CC3C2c2cccs2)cc1 (centres undefined)
GI50 [1]: 22.7 µM | GI50 [2]: 24.4 µM | GI50 [3]: 26.2 µM | GI50 [4]: 20.9 µM | GI50 [5]: 3.1 µM | GI50 [6]: 24.8 µM | GI50 [7]: 17.8 µM | GI50 [8]: 51.2 µM | GI50 [9]: 78.1 µM | GI50 [10]: 18.5 µM | GI50 [11]: 26.4 µM | GI50 [12]: 19.7 µM | GI50 [13]: 19.3 µM | GI50 [14]: 49.5 µM | GI50 [15]: 39 µM | GI50 [16]: 17.9 µM | GI50 [17]: 17.2 µM | GI50 [18]: 18.5 µM | GI50 [19]: 29.1 µM | GI50 [20]: 20.8 µM | GI50 [21]: 53.8 µM | GI50 [22]: 30.8 µM | TGI [22]: 57.3 µM | GI50 [23]: 32.5 µM | TGI [23]: 47 µM | GI50 [24]: 43 µM | TGI [24]: 81.3 µM | GI50 [25]: 32.2 µM | TGI [25]: 68.4 µM | GI50 [26]: 34 µM | TGI [26]: 77.5 µM | GI50 [27]: 30.5 µM | TGI [27]: 48.4 µM | Activity [28]: <=32% | Activity [29]: <=32% | GI50 [30]: 24.6 µM | GI50 [31]: > 100 µM | GI50 [32]: 33.8 µM | GI50 [33]: 22.7 µM | GI50 [34]: 18.9 µM | GI50 [35]: 30 µM | GI50 [36]: 30.7 µM | GI50 [37]: 21.5 µM | GI50 [38]: 22.6 µM | GI50 [39]: 36.2 µM | GI50 [40]: 32.8 µM | GI50 [41]: 41.9 µM | GI50 [42]: 17.6 µM | GI50 [43]: 56.6 µM | GI50 [44]: 24.9 µM | GI50 [45]: 19.5 µM | GI50 [46]: 15.7 µM | Activity [47]: <=32%

O=C(Nc1ccccc1)NS(=O)(=O)c1ccc(-n2nc3c(c2-c2cccs2)Cc2ccccc2-3)cc1
GI50 [1]: 25 µM | GI50 [2]: 12 µM | GI50 [3]: 22.9 µM | GI50 [4]: 16.8 µM | GI50 [5]: 13.4 µM | GI50 [6]: 15.3 µM | GI50 [7]: 28.6 µM | GI50 [8]: 32.2 µM | GI50 [9]: 85.3 µM | GI50 [10]: 11.1 µM | GI50 [11]: 17.6 µM | GI50 [12]: 17.6 µM | GI50 [13]: 16.1 µM | GI50 [14]: 60.8 µM | GI50 [15]: 28.3 µM | GI50 [16]: 20.1 µM | GI50 [17]: 21.8 µM | GI50 [18]: 15.8 µM | GI50 [19]: 17.7 µM | GI50 [20]: 15.6 µM | GI50 [21]: 50.2 µM | GI50 [22]: 20.8 µM | TGI [22]: 56.5 µM | GI50 [23]: 29.6 µM | TGI [23]: 42.5 µM | GI50 [24]: 31.2 µM | TGI [24]: 98.3 µM | GI50 [25]: 29.5 µM | TGI [25]: 43 µM | GI50 [26]: 44.4 µM | TGI [26]: 80.7 µM | GI50 [27]: 18.2 µM | TGI [27]: 74.4 µM | Activity [28]: <=32% | Activity [29]: <=32% | GI50 [30]: 24.1 µM | GI50 [31]: 37.9 µM | GI50 [32]: > 100 µM | GI50 [33]: 25 µM | GI50 [34]: 21.9 µM | GI50 [35]: 22.9 µM | GI50 [36]: 26 µM | GI50 [37]: 8.08 µM | GI50 [38]: 16.9 µM | GI50 [39]: 26.7 µM | GI50 [40]: 31.5 µM | GI50 [41]: 44 µM | GI50 [42]: 12.2 µM | GI50 [43]: 4.5 µM | GI50 [44]: 12.3 µM | GI50 [45]: 26.1 µM | GI50 [46]: 20.8 µM | Activity [47]: <=32%

Reference: ChEMBL document CHEMBL3046832, “Synthesis of some sulfonamides, disubstituted sulfonylureas or thioureas and some structurally related variants. A class of promising antitumor agents” (2007)
